Assays:
PI3K δ = biological target: T1, PI3K δ (Homo sapiens, UniProt O00329); assay: In vitro IC50, PI3K δ (p110δ/p85α inhibition assay); type: biochemical; settings: in vitro kinase assay; read-out: IC50(nM) PI3K δ
T1 construct: purchased Upstate
Experimental: (§1) IC50 values are measured using either a standard TLC assay for lipid kinase activity (described below) or a high-throughput membrane capture assay. Kinase reactions are performed by preparing a reaction mixture containing kinase, inhibitor (2% DMSO final concentration), buffer (25 mM HEPES, pH 7.4, 10 mM MgCl2), and freshly sonicated phosphatidylinositol (100 μg/ml). Reactions are initiated by the addition of ATP containing 10 μCi of γ-32P-ATP to a final concentration 10 or 100 μM and allowed to proceed for 5 minutes at room temperature. For TLC analysis, reactions are then terminated by the addition of 105 μl 1N HCl followed by 160 μl CHCl3:MeOH (1:1). The biphasic mixture is vortexed, briefly centrifuged, and the organic phase is transferred to a new tube using a gel loading pipette tip precoated with CHCl3. This extract is spotted on TLC plates and developed for 3-4 hours in a 65:35 solution of n-propanol:1M acetic acid. The TLC plates are then dried, exposed to a phosphorimager screen (Storm, Amersham), and quantitated.
(§2) Other commercial kits or systems for assaying PI3-K activities are available. The commercially available kits or systems can be used to screen for inhibitors and/or agonists of PI3-Ks including but not limited to PI 3-Kinase α, β, δ, and γ. An exemplary system is PI 3-Kinase (human) HTRF™ Assay from Upstate. […] Briefly, the assay is a time resolved FRET assay that indirectly measures PIP3 product formed by the activity of a PI3-K. The kinase reaction is performed in a microtitre plate (e.g., a 384 well microtitre plate). The total reaction volume is approximately 20 ul per well. In the first step, each well receives 2 ul of test compound in 20% dimethylsulphoxide resulting in a 2% DMSO final concentration. Next, approximately 14.5 ul of a kinase/PIP2 mixture (diluted in 1× reaction buffer) is added per well for a final concentration of 0.25-0.3 ug/ml kinase and 10 uM PIP2. The plate is sealed and incubated for 15 minutes at room temperature. To start the reaction, 3.5 ul of ATP (diluted in 1× reaction buffer) is added per well for a final concentration of 10 uM ATP. The plate is sealed and incubated for 1 hour at room temperature. The reaction is stopped by adding 5 ul of Stop Solution per well and then 5 ul of Detection Mix is added per well. The plate is sealed, incubated for 1 hour at room temperature, and then read on an appropriate plate reader. Data is analyzed and IC50s are generated using GraphPad Prism 5.

PI3K γ = biological target: T2, PI3K γ (Homo sapiens, UniProt P48736); assay: In vitro IC50, PI3K γ (p110γ inhibition assay); type: biochemical; settings: in vitro kinase assay
T2 construct: purchased Sigma
T2 sequence (P48736 whole entry): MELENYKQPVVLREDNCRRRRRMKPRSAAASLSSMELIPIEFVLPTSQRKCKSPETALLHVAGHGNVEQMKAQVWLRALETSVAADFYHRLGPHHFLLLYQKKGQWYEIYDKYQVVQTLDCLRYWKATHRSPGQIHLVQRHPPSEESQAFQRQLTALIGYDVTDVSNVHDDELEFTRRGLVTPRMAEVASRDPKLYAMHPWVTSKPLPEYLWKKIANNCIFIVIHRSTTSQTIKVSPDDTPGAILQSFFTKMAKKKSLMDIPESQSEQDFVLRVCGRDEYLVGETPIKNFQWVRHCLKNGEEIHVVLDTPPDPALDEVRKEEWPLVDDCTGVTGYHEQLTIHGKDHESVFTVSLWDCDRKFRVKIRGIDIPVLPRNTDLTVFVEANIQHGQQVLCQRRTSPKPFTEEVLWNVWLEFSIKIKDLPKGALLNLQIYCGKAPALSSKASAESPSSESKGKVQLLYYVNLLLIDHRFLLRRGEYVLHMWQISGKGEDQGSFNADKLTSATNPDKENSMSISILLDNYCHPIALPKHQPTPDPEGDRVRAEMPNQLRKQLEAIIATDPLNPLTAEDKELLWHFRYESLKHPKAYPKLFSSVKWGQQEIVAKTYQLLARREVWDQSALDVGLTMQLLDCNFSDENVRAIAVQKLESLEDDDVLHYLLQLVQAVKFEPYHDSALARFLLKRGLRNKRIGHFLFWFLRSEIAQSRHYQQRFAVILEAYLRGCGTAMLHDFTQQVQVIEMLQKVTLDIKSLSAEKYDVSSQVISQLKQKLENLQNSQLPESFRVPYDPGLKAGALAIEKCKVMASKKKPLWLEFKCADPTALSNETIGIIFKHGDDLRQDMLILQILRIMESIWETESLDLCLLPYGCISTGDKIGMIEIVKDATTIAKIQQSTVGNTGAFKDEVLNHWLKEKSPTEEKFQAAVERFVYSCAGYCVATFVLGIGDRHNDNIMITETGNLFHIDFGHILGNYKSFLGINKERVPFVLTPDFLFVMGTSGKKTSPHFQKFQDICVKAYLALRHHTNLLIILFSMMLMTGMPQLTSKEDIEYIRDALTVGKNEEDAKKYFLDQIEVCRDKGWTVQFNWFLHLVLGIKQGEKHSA
Experimental: as §1, with “Class I PI3-Ks can be either purchased (p110α/p85α, p110β/p85α, p110δ/p85α from Upstate, and p110γ from Sigma) or expressed as previously described (Knight et al., 2004). IC50” for “IC50”, “quantitated. For each compound, kinase activity is measured at 10-12 inhibitor concentrations representing two-fold dilutions from the highest concentration tested (typically, 200 μM).” for “quantitated.”
as §2

PI3K α = biological target: T3, PI3K α (Homo sapiens, UniProt P42336); assay: In vitro IC50, PI3K α (p110α/p85α inhibition assay); type: biochemical; settings: in vitro kinase assay; read-out: IC50(nM) PI3K α
T3 construct: purchased Upstate
T3 sequence (P42336 whole entry): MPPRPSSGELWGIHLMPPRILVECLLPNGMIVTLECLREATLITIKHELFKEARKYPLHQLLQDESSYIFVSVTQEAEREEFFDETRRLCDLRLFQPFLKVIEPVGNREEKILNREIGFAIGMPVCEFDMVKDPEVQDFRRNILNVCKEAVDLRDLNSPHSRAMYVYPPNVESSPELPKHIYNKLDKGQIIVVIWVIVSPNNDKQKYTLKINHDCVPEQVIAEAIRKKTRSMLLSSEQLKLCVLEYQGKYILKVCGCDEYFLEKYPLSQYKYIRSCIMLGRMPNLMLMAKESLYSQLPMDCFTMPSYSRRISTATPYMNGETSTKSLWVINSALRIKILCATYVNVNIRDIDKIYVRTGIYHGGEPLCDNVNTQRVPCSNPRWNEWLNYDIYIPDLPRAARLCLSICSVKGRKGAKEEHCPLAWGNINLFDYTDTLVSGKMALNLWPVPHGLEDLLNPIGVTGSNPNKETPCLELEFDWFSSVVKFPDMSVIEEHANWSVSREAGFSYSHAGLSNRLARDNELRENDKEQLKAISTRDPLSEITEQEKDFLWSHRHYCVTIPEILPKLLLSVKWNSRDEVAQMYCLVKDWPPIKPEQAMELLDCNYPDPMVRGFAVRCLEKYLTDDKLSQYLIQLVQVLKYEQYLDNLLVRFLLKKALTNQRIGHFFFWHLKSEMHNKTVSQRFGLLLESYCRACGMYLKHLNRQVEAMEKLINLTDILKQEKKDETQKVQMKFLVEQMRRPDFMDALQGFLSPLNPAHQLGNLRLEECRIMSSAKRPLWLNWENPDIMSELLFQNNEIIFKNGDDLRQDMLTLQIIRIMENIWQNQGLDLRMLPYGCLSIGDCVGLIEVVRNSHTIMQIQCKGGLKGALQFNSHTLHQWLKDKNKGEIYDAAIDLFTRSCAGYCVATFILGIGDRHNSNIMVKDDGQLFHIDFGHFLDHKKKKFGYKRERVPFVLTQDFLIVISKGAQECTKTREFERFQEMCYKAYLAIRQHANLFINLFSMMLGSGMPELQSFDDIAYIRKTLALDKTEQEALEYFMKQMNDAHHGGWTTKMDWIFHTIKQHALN
T3 sequence (P27986 whole entry partner): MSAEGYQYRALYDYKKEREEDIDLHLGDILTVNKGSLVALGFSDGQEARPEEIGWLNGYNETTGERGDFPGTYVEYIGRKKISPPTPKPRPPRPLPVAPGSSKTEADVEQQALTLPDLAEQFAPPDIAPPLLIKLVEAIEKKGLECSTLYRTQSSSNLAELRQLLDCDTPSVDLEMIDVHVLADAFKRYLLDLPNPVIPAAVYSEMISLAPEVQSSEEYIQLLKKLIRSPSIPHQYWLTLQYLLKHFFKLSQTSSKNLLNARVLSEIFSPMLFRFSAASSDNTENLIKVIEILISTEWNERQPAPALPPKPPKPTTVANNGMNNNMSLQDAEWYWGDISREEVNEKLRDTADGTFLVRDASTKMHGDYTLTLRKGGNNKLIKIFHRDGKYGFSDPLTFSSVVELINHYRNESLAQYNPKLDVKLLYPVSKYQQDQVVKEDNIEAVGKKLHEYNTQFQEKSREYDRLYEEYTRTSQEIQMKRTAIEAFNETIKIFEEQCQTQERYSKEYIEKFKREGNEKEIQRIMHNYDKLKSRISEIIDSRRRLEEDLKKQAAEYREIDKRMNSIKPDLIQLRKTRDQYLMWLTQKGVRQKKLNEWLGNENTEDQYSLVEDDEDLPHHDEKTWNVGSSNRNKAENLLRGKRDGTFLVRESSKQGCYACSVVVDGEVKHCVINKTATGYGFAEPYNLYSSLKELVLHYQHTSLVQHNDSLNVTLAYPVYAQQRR
Experimental: as §1, §2

Balb/c splenic B cells = assay: B cell activation and proliferation assay (Alamar Blue); type: cell-based; settings: Mus musculus, read-out: B cell proliferation EC50
Experimental: The ability of one or more subject compounds to inhibit B cell activation and proliferation is determined according to standard procedures known in the art. For example, an in vitro cellular proliferation assay is established that measures the metabolic activity of live cells. The assay is performed in a 96 well microtiter plate using Alamar Blue reduction. Balb/c splenic B cells are purified over a Ficoll-Paque™ PLUS gradient followed by magnetic cell separation using a MACS B cell Isolation Kit (Miletenyi). Cells are plated in 90 ul at 50,000 cells/well in B Cell Media (RPMI+10% FBS+Penn/Strep+50 uM bME+5 mM HEPES). A compound disclosed herein is diluted in B Cell Media and added in a 10 ul volume. Plates are incubated for 30 min at 37 C and 5% CO2 (0.2% DMSO final concentration). A 50 ul B cell stimulation cocktail is then added containing either 10 ug/ml LPS or 5 ug/ml F(ab′)2 Donkey anti-mouse IgM plus 2 ng/ml recombinant mouse IL4 in B Cell Media. Plates are incubated for 72 hours at 37° C. and 5% CO2. A volume of 15 uL of Alamar Blue reagent is added to each well and plates are incubated for 5 hours at 37 C and 5% CO2. Alamar Blue fluoresce is read at 560Ex/590Em, and IC50 or EC50 values are calculated using GraphPad Prism 5.

T1 sequence (O00329 whole entry): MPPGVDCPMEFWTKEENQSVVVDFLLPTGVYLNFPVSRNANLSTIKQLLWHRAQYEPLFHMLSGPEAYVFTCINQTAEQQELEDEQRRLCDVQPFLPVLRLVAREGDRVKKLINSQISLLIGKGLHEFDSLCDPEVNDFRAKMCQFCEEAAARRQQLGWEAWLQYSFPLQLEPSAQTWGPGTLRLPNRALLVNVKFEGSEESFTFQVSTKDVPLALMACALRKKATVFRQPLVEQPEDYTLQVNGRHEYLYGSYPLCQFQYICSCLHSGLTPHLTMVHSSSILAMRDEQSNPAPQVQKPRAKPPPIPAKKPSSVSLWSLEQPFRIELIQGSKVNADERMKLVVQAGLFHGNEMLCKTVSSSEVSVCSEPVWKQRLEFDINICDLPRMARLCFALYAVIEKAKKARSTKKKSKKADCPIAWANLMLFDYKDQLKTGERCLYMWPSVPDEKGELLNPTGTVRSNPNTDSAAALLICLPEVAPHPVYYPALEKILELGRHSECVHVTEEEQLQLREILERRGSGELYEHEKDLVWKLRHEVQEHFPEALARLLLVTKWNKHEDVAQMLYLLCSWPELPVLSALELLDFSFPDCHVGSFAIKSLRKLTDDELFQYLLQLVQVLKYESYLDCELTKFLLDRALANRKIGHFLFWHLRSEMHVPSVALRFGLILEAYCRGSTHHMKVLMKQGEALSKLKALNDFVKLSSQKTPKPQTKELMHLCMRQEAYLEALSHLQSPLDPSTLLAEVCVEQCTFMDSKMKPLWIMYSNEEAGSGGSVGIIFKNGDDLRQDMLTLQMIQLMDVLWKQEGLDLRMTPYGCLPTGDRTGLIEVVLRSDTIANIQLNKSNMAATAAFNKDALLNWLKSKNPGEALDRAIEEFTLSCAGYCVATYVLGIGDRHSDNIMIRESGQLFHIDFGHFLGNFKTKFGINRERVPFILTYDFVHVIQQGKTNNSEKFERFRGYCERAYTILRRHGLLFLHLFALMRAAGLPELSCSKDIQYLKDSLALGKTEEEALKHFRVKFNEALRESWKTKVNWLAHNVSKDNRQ
T1 sequence (P27986 whole entry partner): as the sequence (P27986 whole entry partner) above

| SMILES | IC50 (PI3K δ) [nM] | IC50 (PI3K γ) [nM] | IC50 (PI3K α) [nM] | EC50 (Balb/c splenic B cells) [nM] |
| --- | --- | --- | --- | --- |
| CCN1CCC(Oc2nc(Cn3nc(-c4ccc5oc(N)nc5c4)c4c(N)ncnc43)cc3cccc(C)c23)CC1 [Compound 6] | < 100 | < 100 | < 1000 | < 100 |
| Nc1nc2cc(-c3nn(Cc4cc5ccccc5c(N5CCCC5)n4)c4ncnc(N)c34)ccc2o1 [Compound 1] | < 100 | < 100 | < 1000 | < 1000 |
| CS(=O)(=O)N1CCN(c2nc(Cn3nc(-c4cn[nH]c4)c4c(N)ncnc43)cc3cccc(Cl)c23)CC1 [Compound 67] | < 100 | < 1000 | < 10000 | < 1000 |
| CCN1CCC(Oc2nc(Cn3nc(-c4cn[nH]c4)c4c(N)ncnc43)cc3cccc(Cl)c23)CC1 [Compound 56] | < 1000 | > 10000 | > 10000 | < 100 |
| Cc1cccc2cc(C(C)Nc3ncnc4[nH]cnc34)nc(CCN3CCN(C)CC3)c12 (centres unmarked) [Compound 20] | < 100 | > 10000 | > 10000 | < 100 |
| CCN1CCC(Oc2nc(Cn3nc(-c4cn[nH]c4)c4c(N)ncnc43)cc3cccc(C)c23)CC1 [Compound 7] | < 100 | > 10000 | < 10000 | < 100 |
| Cc1cccc2cc(Cn3nc(-c4ccc5nc(N)sc5c4)c4c(N)ncnc43)nc(OC(C)C)c12 [Compound 31] | < 100 | < 100 | < 100 | < 1000 |
| CC(Nc1ncnc2[nH]cnc12)c1cc2cccc(Cl)c2c(OC2CCN(S(C)(=O)=O)CC2)n1 (centres unmarked) [Compound 54] | < 1000 | > 10000 | > 10000 | < 1000 |
| Cc1cccc2cc(Cn3nc(-c4cn[nH]c4)c4c(N)ncnc43)nc(OC3CCNCC3)c12 [Compound 9] | < 100 | > 10000 | > 10000 | < 10000 |
| CS(=O)(=O)N1CCC(Oc2nc(Cn3nc(-c4cn[nH]c4)c4c(N)ncnc43)cc3cccc(Cl)c23)CC1 [Compound 58] | < 1000 | > 10000 | > 10000 | < 1000 |
| Nc1ncnc2c1c(-c1cn[nH]c1)nn2Cc1cc2cccc(Cl)c2c(N2CCCC2)n1 [Compound 68] | < 100 | < 1000 | < 10000 | < 1000 |
| CCN1CCC(Oc2nc(C(C)Nc3ncnc4[nH]cnc34)cc3cccc(C)c23)CC1 (centres unmarked) [Compound 16] | < 100 | > 10000 | > 10000 | < 100 |
| CC(C)N1CCC(Oc2nc(Cn3nc(-c4cn[nH]c4)c4c(N)ncnc43)cc3cccc(Cl)c23)CC1 [Compound 57] | < 100 | > 10000 | > 10000 | < 100 |
| Nc1ncnc2c1c(-c1cn[nH]c1)nn2Cc1cc2cccc(Cl)c2c(N2CCOCC2)n1 [Compound 66] | < 100 | < 1000 | < 10000 | < 100 |
| Cc1cccc2cc(Cn3nc(-c4cn[nH]c4)c4c(N)ncnc43)nc(OC3CCN(C)CC3)c12 [Compound 3] | < 100 | > 10000 | < 10000 | < 100 |
| CN1CCC(Oc2nc(Cn3nc(-c4cn[nH]c4)c4c(N)ncnc43)cc3cccc(Cl)c23)CC1 [Compound 55] | < 100 | > 10000 | > 10000 | < 100 |
| Cc1cccc2cc(Cn3nc(-c4ccc5oc(N)nc5c4)c4c(N)ncnc43)nc(N3CCCC3)c12 [Compound 26] | < 100 | < 100 | < 1000 | < 1000 |
| Cc1cccc2cc(Cn3nc(-c4cn[nH]c4)c4c(N)ncnc43)nc(OC3CCN(C(C)C)CC3)c12 [Compound 13] | < 100 | < 10000 | < 10000 | < 100 |
| CN(C)c1nc(Cn2nc(-c3ccc4oc(N)nc4c3)c3c(N)ncnc32)cc2ccccc12 [Compound 2] | < 100 | < 100 | < 1000 | < 1000 |
| Cc1cccc2cc(Cn3nc(-c4ccc5oc(N)nc5c4)c4c(N)ncnc43)nc(OC3CCN(C(C)C)CC3)c12 [Compound 4] | < 100 | < 100 | < 1000 | < 100 |

From patent US9315505B2, “Heterocyclic compounds and uses thereof” (INTELLIKINE LLC, priority 2009, dated 2016)
